Measurements taken from PubChem BioAssay AID1745844 (Carcinogenic Potency Database (CPDB), 2022).
Activity calls are given as the source filed them. The rule behind the calls is not given here.

Test system: rodent lifetime carcinogenesis bioassay, tumor incidence TD50
Assay: carcinogenic potency in animals, long-term in vivo studies, CPDB compilation (AID 1745844)

## C=C1C(C)(C)[C@@]2(Cl)C(Cl)[C@]1(Cl)C(Cl)(Cl)C2(Cl)Cl (some centres not stated)
mouse, strain B6AKF1, males, oral dosing, site: any site (literature study), lesion: several types, types named in the paper, dosed 79 weeks, study length 79 weeks
  TD50: 0.75 mg/kg/day
mouse, strain B6AKF1, males, oral dosing, site: liver, lesion: hepatoma, dosed 79 weeks, study length 79 weeks
  TD50: 0.644 mg/kg/day
mouse, strain B6C3F1, females, oral dosing, site: any site (literature study), lesion: several types, types named in the paper, dosed 79 weeks, study length 79 weeks
  TD50: 3.37 mg/kg/day
mouse, strain B6C3F1, females, oral dosing, site: lung, lesion: adenoma, dosed 79 weeks, study length 79 weeks
  TD50: 10.7 mg/kg/day
mouse, strain B6C3F1, males, oral dosing, site: all sites, lesion: reticulum-cell sarcoma, dosed 79 weeks, study length 79 weeks
  TD50: 1.41 mg/kg/day
mouse, strain B6C3F1, males, oral dosing, site: any site (literature study), lesion: several types, types named in the paper, dosed 79 weeks, study length 79 weeks
  TD50: 0.75 mg/kg/day
mouse, strain B6C3F1, males, oral dosing, site: liver, lesion: hepatoma, dosed 79 weeks, study length 79 weeks
  TD50: 4 mg/kg/day
mouse, strain B6C3F1, males, oral dosing, site: lung, lesion: adenoma, dosed 79 weeks, study length 79 weeks
  TD50: 8.29 mg/kg/day

## CCOC(=O)[C@H](CCc1ccccc1)N[C@@H](C)C(=O)N1Cc2ccccc2C[C@H]1C(=O)O
mouse, strain B6C3F1, females, by gavage, site: any site (literature study), lesion: several types, types named in the paper, dosed 104 weeks, study length 104 weeks
  TD50: 8160 mg/kg/day (inactive)
mouse, strain B6C3F1, females, by gavage, site: liver, lesion: hepatocellular adenoma, dosed 104 weeks, study length 104 weeks
  carcinogen call: negative (inactive)
mouse, strain B6C3F1, females, by gavage, site: liver, lesion: hepatocellular carcinoma, dosed 104 weeks, study length 104 weeks
  TD50: 966 mg/kg/day (inactive)
mouse, strain B6C3F1, females, by gavage, site: lung, lesion: adenoma, dosed 104 weeks, study length 104 weeks
  TD50: 5070 mg/kg/day (inactive)
mouse, strain B6C3F1, females, by gavage, site: pituitary gland, lesion: adenoma, dosed 104 weeks, study length 104 weeks
  TD50: 128 mg/kg/day (inactive)
mouse, strain B6C3F1, males, by gavage, site: any site (literature study), lesion: several types, types named in the paper, dosed 104 weeks, study length 104 weeks
  TD50: 221 mg/kg/day (inactive)
mouse, strain B6C3F1, males, by gavage, site: liver, lesion: hepatocellular adenoma, dosed 104 weeks, study length 104 weeks
  TD50: 623 mg/kg/day (inactive)
mouse, strain B6C3F1, males, by gavage, site: liver, lesion: hepatocellular carcinoma, dosed 104 weeks, study length 104 weeks
  TD50: 1640 mg/kg/day (inactive)
mouse, strain B6C3F1, males, by gavage, site: lung, lesion: adenoma, dosed 104 weeks, study length 104 weeks
  TD50: 2790 mg/kg/day (inactive)
mouse, strain B6C3F1, males, by gavage, site: lung, lesion: carcinoma, dosed 104 weeks, study length 104 weeks
  TD50: 2810 mg/kg/day (inactive)
rat, strain Wistar, females, by gavage, site: any site (literature study), lesion: several types, types named in the paper, dosed 104 weeks, study length 104 weeks
  carcinogen call: negative (inactive)
rat, strain Wistar, females, by gavage, site: liver, lesion: several types, types named in the paper, dosed 104 weeks, study length 104 weeks
  carcinogen call: negative (inactive)
rat, strain Wistar, males, by gavage, site: any site (literature study), lesion: several types, types named in the paper, dosed 104 weeks, study length 104 weeks
  carcinogen call: negative (inactive)
rat, strain Wistar, males, by gavage, site: liver, lesion: several types, types named in the paper, dosed 104 weeks, study length 104 weeks
  carcinogen call: negative (inactive)

## Oc1cc2c(cc1O)[C@@H]1c3ccc(O)c(O)c3OC[C@]1(O)C2
rat, strain Wistar, both sexes, in feed, site: abdomen, lesion: malignant lymphoma, dosed 78 weeks, study length 78 weeks
  TD50: 2410 mg/kg/day
rat, strain Wistar, both sexes, in feed, site: forehead, lesion: malignant lymphoma, dosed 78 weeks, study length 78 weeks
  TD50: 2410 mg/kg/day
rat, strain Wistar, both sexes, in feed, site: several sites, sites named in the paper, lesion: malignant lymphoma, dosed 78 weeks, study length 78 weeks
  TD50: 1000 mg/kg/day

## COc1cc(OC)c2c3c(c(=O)oc2c1)CCC3
rat, strain Fischer, males, by gavage, site: liver, lesion: one or several types, types not named, dosed 52 weeks, study length 87 weeks
  carcinogen call: negative (inactive)

## Nc1nc(/C=C/c2ccc([N+](=O)[O-])o2)no1
mouse, strain Charles River CD1, females, in feed, site: forestomach, lesion: squamous-cell carcinoma, dosed 31 weeks, study length 75 weeks
  TD50: 105 mg/kg/day
mouse, strain Charles River CD1, females, in feed, site: forestomach, lesion: squamous-cell papilloma, dosed 31 weeks, study length 75 weeks
  TD50: 1150 mg/kg/day
mouse, strain Charles River CD1, females, in feed, site: lung, lesion: adenoma, dosed 31 weeks, study length 75 weeks
  TD50: 1010 mg/kg/day
mouse, strain Charles River CD1, females, in feed, site: reticuloendothelium, lesion: several types, types named in the paper, dosed 31 weeks, study length 75 weeks
  carcinogen call: positive
mouse, strain Charles River CD1, females, in feed, site: thymus gland, lesion: lymphoma, dosed 31 weeks, study length 75 weeks
  TD50: 262 mg/kg/day
mouse, strain Charles River CD1, males, in feed, site: any site (literature study), lesion: several types, types named in the paper, dosed 38 weeks, study length 75 weeks
  TD50: 29.2 mg/kg/day
mouse, strain Charles River CD1, males, in feed, site: forestomach, lesion: squamous-cell carcinoma, dosed 38 weeks, study length 75 weeks
  TD50: 130 mg/kg/day
mouse, strain Charles River CD1, males, in feed, site: forestomach, lesion: squamous-cell papilloma, dosed 38 weeks, study length 75 weeks
  TD50: 514 mg/kg/day
mouse, strain Charles River CD1, males, in feed, site: reticuloendothelium, lesion: several types, types named in the paper, dosed 38 weeks, study length 75 weeks
  TD50: 492 mg/kg/day
mouse, strain Charles River CD1, males, in feed, site: thymus gland, lesion: lymphoma, dosed 38 weeks, study length 75 weeks
  TD50: 121 mg/kg/day

## C=CCOCC1CO1 (configuration not stated)
mouse, strain B6C3F1, females, inhaled, site: Harderian gland, lesion: adenoma, dosed 102 weeks, study length 105 weeks
  TD50: 121 mg/kg/day
mouse, strain B6C3F1, females, inhaled, site: lung, lesion: alveolar/bronchiolar adenoma + alveolar/bronchiolar carcinoma, dosed 102 weeks, study length 105 weeks
  TD50: 123 mg/kg/day
mouse, strain B6C3F1, females, inhaled, site: nasal cavity, respiratory epithelium, lesion: adenoma, dosed 102 weeks, study length 105 weeks
  TD50: 614 mg/kg/day
mouse, strain B6C3F1, males, inhaled, site: lung, lesion: alveolar/bronchiolar adenoma + alveolar/bronchiolar carcinoma, dosed 102 weeks, study length 105 weeks
  TD50: 727 mg/kg/day
mouse, strain B6C3F1, males, inhaled, site: nasal cavity, respiratory epithelium, lesion: adenoma, dosed 102 weeks, study length 105 weeks
  TD50: 182 mg/kg/day
rat, strain Osborne-Mendel, females, inhaled, site: any site (literature study), lesion: several types, types named in the paper, dosed 103 weeks, study length 106 weeks
  TD50: 25.9 mg/kg/day (inactive)
rat, strain Osborne-Mendel, males, inhaled, site: any site (literature study), lesion: several types, types named in the paper, dosed 103 weeks, study length 106 weeks
  TD50: 1.01 mg/kg/day
rat, strain Osborne-Mendel, males, inhaled, site: nasal cavity, olfactory epithelium + nasal cavity, respiratory epithelium, lesion: adenocarcinoma + papillary adenoma + squamous-cell carcinoma, dosed 103 weeks, study length 106 weeks
  TD50: 14.9 mg/kg/day

## CCSC[C@H](N)C(=O)O
rat, strain Wistar, males, in feed, site: abdomen, lesion: liposarcoma, dosed 58 weeks, study length 89 weeks
  TD50: 3630 mg/kg/day (inactive)
rat, strain Wistar, males, in feed, site: any site (literature study), lesion: several types, types named in the paper, dosed 58 weeks, study length 89 weeks
  TD50: 3630 mg/kg/day (inactive)
rat, strain Wistar, males, in feed, site: liver, lesion: one or several types, types not named, dosed 58 weeks, study length 89 weeks
  carcinogen call: negative (inactive)
